Tests used:
Type in all cases: in vivo, human
[1] = test system: Asian volunteers with dull skin and large senescence spots; experiment: Clinical study: ultrasound measurement of dermis density using DUB SkinScanner; settings: for Dermis density Mean +/− SD / Dermis density change vs D 0: cream with 2% ascorbic acid, hemiface, Asian women
Description: (§1) For this study, volunteers applied the cream twice a day for 56 days.
(§2) GLYCOL, DIMETHICONE, FRAGRANCE
(§3) Volunteers were divided into two groups as follows: • Group 1: 20 Asian women testing the active cream in comparison to the placebo cream with an average age of 54±5 years. • Group 2: 18 Asian women testing the vitamin C cream in comparison to the placebo cream with an average age of 53±8 years.
(§4) Volunteers applied a cream containing 0.4% of active, 2% of ascorbic acid (vitamin C), respectively, on one hemiface and a placebo cream on the other hemiface […] for 56 days.
(§5) During this study, a skin color and spots analysis was conducted using Colorface®, biomechanical properties were tested using Cutometery®, and the dermis thickness was determined using a DUB SkinScanner 75® probe (max. depth of 3.28 mm).
The DUB Skin Scanner system is a high-frequency, high-resolution ultrasound diagnostic tool for use in dermatology, cosmetics and pharmaceuticals and clinical research. 75 MHz ultrasound is a popular method for non-invasive skin analysis. High frequency ultrasound (75 MHz) can explore the superficial layers of the skin and can penetrate up to 3 mm into the skin. Skin ultrasound is based on the population of ultrasound in the skin and on the direction and measurement of the amplitudes of the part reflected by the interfaces separating two media having different characteristics of acoustic waves. An ultrasound imaging technique used for the visualization of the structure of the subcutaneous body allows the evaluation of the homogeneity of the skin, including the density and the skin thickness.
Three measurements of thickness and density were taken to obtain an average for each image.
For this study, the analysis of the density of the dermis was carried out on D0, D28 and D56.

[2] = test system: Asian volunteers with dull skin and large senescence spots; experiment: Clinical study: skin color analysis using Colorface (homogeneity, radiance, pigment defect); settings: for Pigment defect Mean +/− SD / Radiance Mean +/− SD / Pigment defect Average volume (mm^3) vs D 0 / Radiance Average variation (%) vs D 0: cream with 2% ascorbic acid, hemiface, Asian women; for pigment homogeneity, fold better than the placebo: vitamin C cream 2%
Description: For this study, volunteers applied the cream twice a day for 56 days. […]
as §3, §4, §5
Skin color measurements were performed based on photos taken with the Colorface® acquisition system. Colorface® is a 2D acquisition system for taking standardized and multimodal photos of the entire face. The device is equipped with a 24M pixel sensor and also has a specific UV lamp. The acquisition methods are: UltraViolet, photo without filter, cross-polarized photo, parallel-polarized photo, standard 45° photo, and standard […].
An analysis of the radiance of the complexion, pigment spots, color (L*,a*,b* parameters) and melanin on the spots from photos using image analysis software was performed. 2D photos of the face were taken on D0, D28 and D56.

[3] = test system: Asian volunteers with dull skin and large senescence spots; experiment: Clinical study: skin biomechanical properties by Cutometer (R0, firmness); settings: for Firmness effect (R0) Mean +/− SD / Firmness effect (R0) Average variation (%) vs D 0: hemiface
Description: as §1, §2, §3, §4, §5
The analysis of the mechanical properties of the skin enables to assess the functional state of the following tissue structures: • The elastic structures, such as elastic fibers, curvature of the connective bundles, wrinkles of the stratum corneum; and • the viscous-behaving structures, such as interstitial fluids, internal adherences.
The study was performed using a Cutometer® MPA 580 (Courage & Khazaka). The measuring principle is based on the suction method: Negative pressure is created in the device and the skin is drawn into a cylindrical aperture (2 mm in diameter) of the probe. Inside the probe, the penetration depth is determined by an optical measuring system. Each suction phase is followed by a relaxing phase.
In the present study, the following program was used: • Length of the cycle: 4 seconds • Suction: 2 seconds • Relaxation: 2 seconds • Negative pressure: 450 millibars • Diameter of the chamber: 2 mm • Area measured: crow's feet
From these curves, the parameters can be calculated. • During the suction phase, the deformation of the skin by the negative pressure measures first the elastic resistance and then the viscous component, which taken together represent skin firmness. • During the relaxation phase, the immediate recovery of the skin measures sheer cutaneous elasticity, whereas the delayed return of the skin to its initial position measures the viscoelastic component.
This study focused on the R0 or Uf parameter, which represents the amplitude of the skin during the suction phase. At equal pressure, the more flexible the skin, the greater the amplitude. Thus R0 (or UF) will evaluate the viscoelastic dispensability, or in other words, the firmness of the skin.
These parameters were measured on D0, D28, D56.

[4] = cream with 2% ascorbic acid, Asian women, D 28
[5] = cream with 2% ascorbic acid, Asian women, D 56

## O=C1O[C@H]([C@@H](O)CO)C(O)=C1O [Ascorbic acid, ascorbic acid]
[1]; D 0 (baseline)
  Dermis density Mean +/− SD: 37.7 ± 8.1 arbitrary unit
[1]; D 28
  Dermis density Mean +/− SD: 39.1 ± 8.3 arbitrary unit
  Dermis density change vs D 0: +3.8%
[1]; D 56
  Dermis density Mean +/− SD: 40.7 ± 9.2 arbitrary unit
  Dermis density change vs D 0: +7.2%
[2]; D 0 (baseline)
  Pigment defect Mean +/− SD: 15660 ± 4532 arbitrary unit
  Radiance Mean +/− SD: 72.3 ± 1.6 arbitrary unit
[2]; D 28
  Pigment defect Average volume (mm^3) vs D 0: −11.7%
  Pigment defect Mean +/− SD: 13826 ± 4311 arbitrary unit
  Radiance Average variation (%) vs D 0: 0.7%
  Radiance Mean +/− SD: 72.7 ± 1.9 arbitrary unit
[2]; D 56
  Pigment defect Average volume (mm^3) vs D 0: −16.5%
  Pigment defect Mean +/− SD: 13078 ± 3731 arbitrary unit
  Radiance Average variation (%) vs D 0: 1.4%
  Radiance Mean +/− SD: 73.3 ± 2.3 arbitrary unit
[2]; day 28
  pigment homogeneity, fold better than the placebo: 1.6 fold
[2]; day 56
  pigment homogeneity, fold better than the placebo: 1.8 fold
[3]; cream with 2% ascorbic acid, Asian women, D 0 (baseline)
  Firmness effect (R0) Mean +/− SD: 0.283 ± 0.036 arbitrary unit
[3]; [4]
  Firmness effect (R0) Average variation (%) vs D 0: −6.9%
  Firmness effect (R0) Mean +/− SD: 0.263 ± 0.032 arbitrary unit
[3]; [5]
  Firmness effect (R0) Average variation (%) vs D 0: −6.5%
  Firmness effect (R0) Mean +/− SD: 0.264 ± 0.046 arbitrary unit

## O=C(O[C@@H]1Cc2c(O)cc(O)cc2O[C@@H]1c1cc(O)c(O[C@H]2O[C@H](CO)[C@@H](O)[C@H](O)[C@H]2O)c(O)c1)c1cc(O)c(O)c(O)c1 [epigallocatechin gallate 4′-O-α-monoglucoside]
[1]; summary statement, clinical evaluation on Asian volunteers
  increase of the dermis density: up to 16.6%
[2]; active cream 0.4%, after 28 days
  effect on pigment homogeneity, times more pronounced relative to the placebo: 3.0 times
[2]; active cream 0.4%, after 56 days
  reduction of pigment defect (melanin content in pigmented spots area) compared to the placebo: up to −21.7%
[3]; active cream 0.4%, Asian women
  improvement of skin firmness relative to the placebo cream: up to 21 fold
[3]; active cream 0.4%, Asian women, D 28
  Firmness effect (R0) Average variation (%) vs D 0: ~8.7%
[3]; active cream 0.4%, Asian women, D 56
  Firmness effect (R0) Average variation (%) vs D 0: −8.2%
[3]; after 56 days
  improvement of skin firmness, times better than placebo: up to 21 times

Source: patent US20260152777A1, “METHOD FOR PRODUCING EPIGALLOCATECHIN GALLATE MONOGLUCOSIDE” (GIVAUDAN SA, priority 2022, published 2026)
